Experimental findings from patent US11932599B2, “Ferroptosis inducing compound, compositions comprising the same, and methods of inducing ferroptosis” (UNIVERSITY OF MASSACHUSETTS, priority 2021, dated 2024) are described below.

Data set [1] deals with HT-1080 cells. In words: Cell viability assay (Alamar Blue), cytotoxicity in HT-1080 cells. The class given is cell-based, human. The method, then:
(§1) Cell lines and media. In the following example, HT-1080 (Human fibrosarcoma harboring NrasQ61K) cells (obtained from ATCC) were grown in DMEM high-glucose media with 1% non-essential amino acids (Life Technologies) and 10% FBS. 143B cells were grown in DMEM high-glucose media with 1% glutamine and 10% FBS. Calu-1 cells were grown in McCoy's 5A media (Life Technologies) supplemented with 10% FBS. All the cell lines were grown at 37° C. under 5% CO2. Cell lines were not tested for mycoplasma. In addition, the panel of four lung cancer (NCI-H23; SK-Mes-1; Calu6 and A549) were purchased from ATCC. They were cultured according to the ATCC protocol of each cell line. The non-malignant breast epithelial cells (MCF10A) were maintained in DMEM/F12 medium supplemented with 5% horse serum, epidermal growth factor (20 ng/ml), insulin (10 μg/ml), hydrocortisone ([…]), cholera toxin (100 ng/ml), and penicillin/streptomycin.
Cell viability assay. 9,000 cells per 100 μl were seeded in each well in 96-well plates. Lethal compounds were dissolved in DMSO. In the mother plates, DMSO stock of each compound was further diluted with media to create 20 μM or 10 μm as highest concentrations, respectively and a twofold, 9-point dilution series was prepared. Cells were seeded for 24 h and media were replaced by the mother plate drug-dilution media. When ferroptosis inhibitors (for example, 500 nM Ferrostatin-1, 100 μM α-tocopherol, 152 μM deferoxamine) were used in cotreatments with lethal inducers, they were supplemented to cell culture when the lethal compounds were added, and the cells were then incubated for 48 h. When other cell-death-modulating compounds (100 nM sodium selenite) were used in cotreatments, they were supplemented to cell culture for 24 h before lethal compounds were added to cell culture, after which cells were further incubated for 48 h at 37° C. under 5% CO2. On the day of the viability measurement, we added 25 μl per well of 50% Alamar Blue diluted in media (Life Technologies) and further incubated the cells at 37° C. for 6 h. Fluorescence intensity (excitation/emission: 540/590) was measured with a Victor 3 plate reader (PerkinElmer), and the normalized viability was calculated as VL=(IL−I0)/(IV−I0), where VL is the normalized viability, I0 is the raw fluorescence intensities from the wells containing media, IV is the cells treated with a vehicle (negative control), and IL is the cells with the lethal compound (L), respectively. The viability was typically measured in at least biological duplicate. A representative dose-response curve, the mean and standard error of normalized viability from one replicate were plotted.
Statistical analysis and data visualization. Dose-response curve plotting and EC50 computation were performed with Prism 6.0c (GraphPad Software).
Various compounds were selected for analysis of their cytotoxicity in HT-1080 cells according to the procedure described above.
A general note: Resazurin is reduced to fluorescent resorufin, in cell work by metabolically active cells.

For data set [2], the system named is HT-1080 cells. In words: Cell viability assay in HT-1080 cells, cotreatment with cell-death inhibitors. It counts as cell-based, human. As to conditions: HT-1080, 48 h; for EC50: Homo sapiens, read-out: EC50 (μM) of FIN56 + inhbitor.
Another data set relates to NCI-H23 cells. The experiment in a line: Cell viability assay, cytotoxicity in NCI-H23 cells. As to conditions: NCI-H23 cells, 48 hours. The class given is cell-based. The protocol:
as §1
Cell viability assay. 9,000 cells per 100 μl were seeded in each well in 96-well plates. Lethal compounds were dissolved in DMSO. In the mother plates, DMSO stock of each compound was further diluted with media to create 20 μM or 10 μm as highest concentrations, respectively and a twofold, 9-point dilution series was prepared. […] Fluorescence intensity (excitation/emission: 540/590) was measured with a Victor 3 plate reader (PerkinElmer), and the normalized viability was calculated as VL=(IL−I0)/(IV−I0), where VL is the normalized viability, I0 is the raw fluorescence intensities from the wells containing media, IV is the cells treated with a vehicle (negative control), and IL is the cells with the lethal compound (L), respectively. The viability was typically measured in at least biological duplicate. […]
In addition, the compound TKD1079 was also analyzed for cytotoxicity in four different lung cancer cell lines according to the procedure described above. […] Cytotoxicity was also determined against MCF10A non-malignant breast epithelial cell, NCI-H1299 human non-small cell lung carcinoma cell line, and Beas-2B epithelial cells isolated from normal human bronchial epithelium.

Setting [3] is: HT-1080 cells, compound alone, read-out: EC 50.
Setting [4] is: Homo sapiens, HT-1080, HT-1080 cells, compound alone, read-out: EC 50.

Structures are written as SMILES.

Turning to `O=S(=O)(NC1CCCCC1)c1ccc2c(c1)C(=NO)c1cc(S(=O)(=O)NC3CCCCC3)ccc1-2` [FIN56, reference compound], the EC50 is 0.326 µM in the data set with HT-1080 cells [1] (setting [3]); 0.328 µM in the data set on HT-1080 cells [1] (Homo sapiens, HT-1080, 48 h, HT-1080 cells, 48 hour incubation, no inhibitor, read-out: EC50 (μM) of FIN56); 0.328 µM in the data set on HT-1080 cells [1] (setting [4]); more than 20 µM in the data set with HT-1080 cells [2] (cotreated with DFOM (152 μM)); more than 30 µM with HT-1080 cells [2] (cotreated with Fer 1 (500 nM)); 0.196 µM in the data set on HT-1080 cells [2] (cotreated with ZVAD (45 μM)). In addition, the EC50 in the data set on HT-1080 cells [2] (cotreated with aToc (100 μM)) turned out to be 11.5 µM. Further, the “Slectivity in fold [EC50 (FIN56 + inhibitor)/ EC50 inhbitor]” value in the data set on HT-1080 cells [2] (DFOM (152 μM)) was more than 60 fold; with HT-1080 cells [2] (Fer 1 (500 nM)), more than 90 fold; in the data set with HT-1080 cells [2] (ZVAD 45 μM), 0.6 fold; in the data set on HT-1080 cells [2] (aToc (100 μM)) it was 34.8 fold. Moreover, the “blocking of the compound's lethality by the apoptosis inhibitor pathway (ZVAD)” value with HT-1080 cells [2] (ZVAD 45 μM) is “did not block”.

Turning to `N#CC1c2cc(S(=O)(=O)NC3CCCCC3)ccc2-c2ccc(S(=O)(=O)NC3CCCCC3)cc21` [MH1013, 9-cyano-N^2,N^7-dicyclohexyl-9H-fluorene-2,7-disulfonamide], the EC50 in the data set on HT-1080 cells [1] (setting [4]) amounted to 13.4 µM.

With `C#CCON=C1c2cc(S(=O)(=O)NC3CCCCC3)ccc2-c2ccc(S(=O)(=O)NC3CCCCC3)cc21` [TKD1020, N^2,N^7-dicyclohexyl-9-((prop-2-yn-1-yloxy)imino)-9H-fluorene-2,7-disulfonamide], the EC50 in the data set on HT-1080 cells [1] (setting [4]) stood at 10.8 µM.

In the case of `O=S(=O)(NC12CC(C1)C2)c1ccc2c(c1)C(=NO)c1cc(S(=O)(=O)NC34CC(C3)C4)ccc1-2` [TKD1026, N^2,N^7-di(bicyclo[1.1.1]pentan-1-yl)-9-(hydroxyimino)-9H-fluorene-2,7-disulfonamide], the EC50 with HT-1080 cells [1] (setting [3]) is 1.7 µM; in the data set on HT-1080 cells [1] (setting [4]), less than 2 µM.

With `O=S(=O)(NCCF)c1ccc2c(c1)C(=NO)c1cc(S(=O)(=O)NCCF)ccc1-2` [TKD1027, N^2,N^7-bis(2-fluoroethyl)-9-(hydroxyimino)-9H-fluorene-2,7-disulfonamide], the EC50 in the data set on HT-1080 cells [1] (setting [4]) was more than 20 µM.

As for `CNS(=O)(=O)c1ccc2c(c1)C(=NO)c1cc(S(=O)(=O)NC)ccc1-2` [TKD1034A, 9-(hydroxyimino)-N^2,N^7-dimethyl-9H-fluorene-2,7-disulfonamide], the EC50 in the data set on HT-1080 cells [1] (setting [4]) is 12.1 µM.

With `CCC(CC)NS(=O)(=O)c1ccc2c(c1)C(=NO)c1cc(S(=O)(=O)NC(CC)CC)ccc1-2` [TKD1034D, 9-(hydroxyimino)-N^2,N^7-di(pentan-3-yl)-9H-fluorene-2,7-disulfonamide], the EC50 with HT-1080 cells [1] (setting [4]) was found to be 0.51 µM.

As to `CCCNS(=O)(=O)c1ccc2c(c1)C(=NO)c1cc(S(=O)(=O)NCCC)ccc1-2` [TKD1034E, 9-(hydroxyimino)-N^2,N^7-dipropyl-9H-fluorene-2,7-disulfonamide], in the data set with HT-1080 cells [1] (setting [4]), the EC50 was found to be 5.67 µM.

`C#CC1(O)c2cc(S(=O)(=O)NC3CCCCC3)ccc2-c2ccc(S(=O)(=O)NC3CCCCC3)cc21` [TKD1066, N^2,N^7-dicyclohexyl-9-ethynyl-9-hydroxy-9H-fluorene-2,7-disulfonamide]: in the data set with HT-1080 cells [1] (setting [4]), the EC50 was found to be 4.59 µM.

`O=S(=O)(NC1CCCCC1)c1ccc2c(c1)C(Br)c1cc(S(=O)(=O)NC3CCCCC3)ccc1-2` [TKD1100, 9-bromo-N2,N^7-dicyclohexyl-9H-fluorene-2,7-disulfonamide]: the EC50 in the data set on HT-1080 cells [1] (setting [4]) is 3.56 µM.

`O=S(=O)(NC1C2CC3CC(C2)CC1C3)c1ccc2c(c1)C(=NO)c1cc(S(=O)(=O)NC3C4CC5CC(C4)CC3C5)ccc1-2` (stereo not drawn) [TKD2043, N^2,N^7-di(adamantan-2-yl)-9-(hydroxyimino)-9H-fluorene-2,7-disulfonamide]: the “cytotoxicity (cell viability) in NCI-H23 cells” value with NCI-H23 cells was “significantly more potent than TKD1079 and FIN56”.

`CC(C)CNS(=O)(=O)c1ccc2c(c1)C(=NO)c1cc(S(=O)(=O)NCC(C)C)ccc1-2` [TKD10416, 9-(hydroxyimino)-N^2,N^7-diisobutyl-9H-fluorene-2,7-disulfonamide]: the EC50 in the data set on HT-1080 cells [1] (setting [4]) is 4.35 µM.
